9 compounds from ChEMBL document CHEMBL1155993, “5-(2-Pyrimidinyl)-imidazo[1,2-a]pyridines are antibacterial agents targeting the ATPase domains of DNA gyrase and topoisomerase IV” (Bioorg Med Chem Lett, 2009) can be followed below.

Molecules are shown by their SMILES. ≈ marks a conversion by molar mass, not a printed value.

The target in data set [1] is DNA gyrase subunit B (Streptococcus pneumoniae serotype 4 (strain ATCC BAA-334 / TIGR4), UniProt P0A4L9). Put plainly: Inhibition of Streptococcus pneumoniae SP-3 gyrB by enzyme coupled phosphate assay.
DNA gyrase subunit B, sequence (P0A4L9 whole entry): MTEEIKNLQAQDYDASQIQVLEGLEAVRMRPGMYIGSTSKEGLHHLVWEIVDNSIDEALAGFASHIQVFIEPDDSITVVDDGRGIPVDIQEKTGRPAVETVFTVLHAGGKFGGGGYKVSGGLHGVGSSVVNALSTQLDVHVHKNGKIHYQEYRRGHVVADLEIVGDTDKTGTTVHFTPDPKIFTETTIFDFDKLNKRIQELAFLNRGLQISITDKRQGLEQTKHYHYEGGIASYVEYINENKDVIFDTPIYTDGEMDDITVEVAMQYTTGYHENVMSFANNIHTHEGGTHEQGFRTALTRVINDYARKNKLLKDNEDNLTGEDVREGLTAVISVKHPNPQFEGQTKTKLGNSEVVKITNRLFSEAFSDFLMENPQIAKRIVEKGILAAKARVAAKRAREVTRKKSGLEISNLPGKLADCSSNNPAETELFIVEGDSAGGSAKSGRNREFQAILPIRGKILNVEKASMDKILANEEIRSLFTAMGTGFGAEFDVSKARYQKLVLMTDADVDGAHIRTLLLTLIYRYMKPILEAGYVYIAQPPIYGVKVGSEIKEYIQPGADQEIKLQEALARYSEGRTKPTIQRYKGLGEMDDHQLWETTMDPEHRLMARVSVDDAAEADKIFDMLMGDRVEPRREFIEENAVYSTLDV
The target of data set [2] is T1, ParE (Streptococcus pneumoniae, UniProt Q7X1P7).
T1 sequence (Q7X1P7 whole entry): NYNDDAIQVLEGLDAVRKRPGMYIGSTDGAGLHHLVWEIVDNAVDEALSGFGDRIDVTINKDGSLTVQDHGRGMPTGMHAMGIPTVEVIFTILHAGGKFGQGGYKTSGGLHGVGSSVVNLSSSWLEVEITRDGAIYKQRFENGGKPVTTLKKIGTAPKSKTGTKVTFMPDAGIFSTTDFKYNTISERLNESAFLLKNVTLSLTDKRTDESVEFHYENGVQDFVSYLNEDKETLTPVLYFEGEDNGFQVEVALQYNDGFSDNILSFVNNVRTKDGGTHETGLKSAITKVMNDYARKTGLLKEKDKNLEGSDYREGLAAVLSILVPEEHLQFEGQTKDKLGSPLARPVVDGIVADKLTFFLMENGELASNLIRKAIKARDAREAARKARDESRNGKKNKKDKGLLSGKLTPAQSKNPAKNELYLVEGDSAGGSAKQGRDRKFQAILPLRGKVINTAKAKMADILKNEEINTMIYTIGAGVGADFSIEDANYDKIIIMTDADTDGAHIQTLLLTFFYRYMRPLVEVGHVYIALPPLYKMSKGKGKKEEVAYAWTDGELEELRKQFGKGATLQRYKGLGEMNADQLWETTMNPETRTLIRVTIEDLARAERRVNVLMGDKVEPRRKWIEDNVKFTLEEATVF
Put plainly: Inhibition of Streptococcus pneumoniae SP-3 parE after 30 mins.

For data set [3], the system named is Staphylococcus aureus. Put plainly: Antibacterial activity against Staphylococcus aureus UC76 by NCCLS method. In kind it is functional, organism-based.
In data set [4] the test system is Staphylococcus aureus. Briefly: Antibacterial activity against methicillin resistant Staphylococcus aureus SA-1417 by NCCLS method. The format is functional.
Data set [5] relates to Streptococcus pyogenes. Briefly: Antibacterial activity against Streptococcus pyogenes SP1-1 by NCCLS method. The format is functional.
Data set [6] has as its system Streptococcus pneumoniae. Briefly: Antibacterial activity against Streptococcus pneumoniae SP-3 by NCCLS method. The format is functional.
The test system of data set [7] is Streptococcus pneumoniae. Briefly: Antibacterial activity against fluoroquinolone resistant Streptococcus pneumoniae SP-3765 by NCCLS method. The format is functional.
For data set [8], the system named is Streptococcus pyogenes. Briefly: Antibacterial activity against Streptococcus pyogenes SP1-1 infected in po dosed mouse sepsis model. In kind it is functional. The following applies: SP1-1, po, read-out: PD50.
In data set [9] the test system is Streptococcus pneumoniae. Briefly: Antibacterial activity against Streptococcus pneumoniae SV-1 infected in po dosed mouse lung. The format is functional. The following applies: SV-1, po, read-out: PD50.
The nature of data set [10]: Bioavailability in rat. In kind it is ADME, organism-based. The following applies: in vivo.
Data set [11] is described as follows: Clearance in rat. The format is ADME, organism-based. The settings on record: in vivo.
Data set [12] is described as follows: Volume of distribution in rat. In kind it is ADME, organism-based. The following applies: in vivo.
Data set [13] relates to Staphylococcus aureus. Briefly: Antibacterial activity against methicillin resistant Staphylococcus aureus 01A-1095 by NCCLS method. In kind it is functional.
The subject of data set [14] is Streptococcus pyogenes. Briefly: Antibacterial activity against Streptococcus pyogenes C203 by NCCLS method. The format is functional.
For data set [15], the system named is Streptococcus pneumoniae. Put plainly: Antibacterial activity against Streptococcus pneumoniae D39 by NCCLS method. The format is functional.

`CCNC(=O)Nc1cn2c(-c3ncc(C)cn3)cc(-c3ccn(CCF)c(=O)c3)cc2n1`: the IC50 in data set [1] was 376 nM; in [2], 10000 nM. Further, the MIC amounted to 0.5 µg/mL (≈ 1.15 µM) in [3] (read-out: MIC); 1 µg/mL (≈ 2.3 µM) in data set [4]; 0.5 µg/mL (≈ 1.15 µM) in [5]; 0.125 µg/mL (≈ 0.287 µM) in data set [6]; 0.5 µg/mL (≈ 1.15 µM) in [7].

On to `CCNC(=O)Nc1cn2c(-c3ncc(C)cn3)cc(-c3ccn(CC)c(=O)c3)cc2n1`, for which the figures for the half-inhibitory concentration (IC50) in data set [1] and in [2] were 51 nM and 624 nM, respectively. The MIC in data set [3] (read-out: MIC) was found to be 0.25 µg/mL (≈ 0.599 µM); in [4] it was 0.5 µg/mL (≈ 1.2 µM); in data set [5] it was 1 µg/mL (≈ 2.4 µM); in [6] it was 0.06 µg/mL (≈ 0.144 µM); in data set [7] it was 0.125 µg/mL (≈ 0.299 µM).

In the case of `CCNC(=O)Nc1cn2c(-c3ncccn3)cc(-c3cccnc3)cc2n1`, the IC50 in [1] was 48 nM; in data set [2] it was 447 nM. Moreover, the MIC in data set [3] (read-out: MIC) was found to be 0.5 µg/mL (≈ 1.39 µM); in [4], 0.5 µg/mL (≈ 1.39 µM); in data set [5], 0.25 µg/mL (≈ 0.696 µM); in data set [6] it was 0.125 µg/mL (≈ 0.348 µM); in data set [7], 0.25 µg/mL (≈ 0.696 µM). In addition, the ED50 worked out at 24 mg/kg in data set [8] and 35 mg/kg in data set [9]. The bioavailability in data set [10] worked out at 56%. Besides, the clearance in [11] turned out to be 33 mL/min/kg. Besides, the Vd in data set [12] is 1.6 L/kg.

Consider `CCNC(=O)Nc1cn2c(-c3ncc(C)cn3)cc(-c3cccnc3)cc2n1`, for which the results for the 50% inhibitory concentration (IC50) in data set [1] and in [2] were 53 nM and 250 nM, respectively. Besides, the MIC in [3] (read-out: MIC) was 0.5 µg/mL (≈ 1.34 µM); in data set [4] it was 0.5 µg/mL (≈ 1.34 µM); in [5], 0.5 µg/mL (≈ 1.34 µM); in data set [6] it was 0.125 µg/mL (≈ 0.335 µM); in [7], 0.125 µg/mL (≈ 0.335 µM). In addition, the values for the ED50 in data set [8] and in data set [9] were 24 mg/kg and 21 mg/kg, respectively. In [10], this compound registered a bioavailability of 99%. The compound further yielded a clearance in data set [11] of 18 mL/min/kg. The Vd in [12] came out at 1.3 L/kg.

Regarding `CCCn1ccc(-c2cc(-c3ncc(C)cn3)n3cc(NC(=O)NCC)nc3c2)cc1=O`, the results for the IC50 in data set [1] and in [2] were 97 nM and 1020 nM, respectively. Also, the MIC in data set [3] (read-out: MIC) was 0.125 µg/mL (≈ 0.29 µM); in data set [4] it was 0.25 µg/mL (≈ 0.579 µM); in data set [5] it was 0.25 µg/mL (≈ 0.579 µM); in data set [6] it was 0.06 µg/mL (≈ 0.139 µM); in data set [7], 0.06 µg/mL (≈ 0.139 µM).

With `CCNC(=O)Nc1cn2c(-c3ncc(C)cn3)cc(-c3ccn(CCOC)c(=O)c3)cc2n1`, the IC50 in data set [1] was 401 nM; in [2], 1640 nM. The MIC in data set [3] (read-out: MIC) was found to be 0.06 µg/mL (≈ 0.134 µM); in data set [4], 0.25 µg/mL (≈ 0.559 µM); in data set [5] it was 0.06 µg/mL (≈ 0.134 µM); in data set [6] it was 0.06 µg/mL (≈ 0.134 µM); in [7], 0.125 µg/mL (≈ 0.279 µM).

Consider `CCNC(=O)Nc1cn2c(-c3ncc(C)cn3)cc(-c3ccn(CC(=O)O)c(=O)c3)cc2n1`, for which the values for the IC50 in data set [1] and in [2] were 98 nM and 2140 nM, respectively. Moreover, the MIC in data set [3] (read-out: MIC) worked out at 64 µg/mL (≈ 143 µM); in data set [4], 32 µg/mL (≈ 71.5 µM); in [5], 64 µg/mL (≈ 143 µM); in data set [6] it was 64 µg/mL (≈ 143 µM); in data set [7] it was 64 µg/mL (≈ 143 µM).

On to `CCNC(=O)Nc1cn2c(-c3ncc(C)cn3)cc(-c3cnc(OC)nc3)cc2n1`, for which the half-maximal inhibitory concentration (IC50) is 132 nM in [1] and 3640 nM in [2]. The MIC in data set [3] (read-out: MIC) was 16 µg/mL (≈ 39.6 µM); in data set [4], greater than 64 µg/mL; in data set [5] it was 32 µg/mL (≈ 79.1 µM); in data set [6], 16 µg/mL (≈ 39.6 µM); in data set [7], 16 µg/mL (≈ 39.6 µM).

For the compound `CO[C@@H]1[C@@H](OC(N)=O)[C@@H](O)[C@H](Oc2ccc3c(O)c(NC(=O)c4ccc(O)c(CC=C(C)C)c4)c(=O)oc3c2C)OC1(C)C` [NOVOBIOCIN], in [2], the half-maximal inhibitory concentration (IC50) is 2030 nM. Moreover, the MIC in [3] was found to be 0.125 µg/mL (≈ 0.204 µM); in data set [7] it was 4 µg/mL (≈ 6.53 µM); in data set [13] it was 0.125 µg/mL (≈ 0.204 µM); in data set [14], 8 µg/mL (≈ 13.1 µM); in [15] it was 4 µg/mL (≈ 6.53 µM).
